Reference: patent US10611748B2, “Xanthone derivatives for the treatment of hepatitis B virus disease” (Hoffmann-La Roche Inc., priority 2017, dated 2020)

System: cccDNA level in HepDES19 cells
Experiment: cccDNA Southern Blot assay
Type: cell-based, HBV
Settings: 5 days' compound treatment, Hirt DNA, serial dilutions
Procedure: HepDES19 cells were seeded at 4×10^6 cells per T150 in the culture medium (Dulbecco's Modified Eagle Medium: Nutrient Mixture F-12 (DMEM:F12, Gibco Cat. 11320-82), 10% Fetal Bovine Serum (FBS, Clontech Cat. 631101), 0.1 mM Non-Essential Amino Acids Solution (NEAA, Gibco Cat. 11140-050), […] Penicillin-Streptomycin (PS, Invitrogen Cat. 15140-163), 500 μg/mL Geneticin (G418, Invitrogen Cat. 10131-027) in the absence of Tet for 8 days. These cells were seeded at the density of 1×10^6 cells per well in 6-well plate. At 24 hrs after seeding, serial dilutions of compounds made with DMSO (Sigma, Cat. D2650) were further diluted with the same culture medium as described above before they were added to the cells to reach desired final compound concentrations and 1% DMSO concentration. After 5 days' compound treatment, the cells growing in one well from 6-well plate were re-suspended with 500 μL re-suspension buffer (50 mM tris[hydroxymethyl]aminomethane pH 7.5), 10 mM ethylenediaminetetraacetic acid (EDTA), 50 μg/mL RNase A (Qiagen, Cat. 158922). 500 μL of 1.2% sodium dodecyl sulfate (SDS) was then added into the re-suspended cells to lyse the cells. After 15 minutes' incubation, 700 μL precipitation buffer (3M cesium chloride, 1M potassium acetate, 0.67M acetic acid) was added and the lysate was incubated at 4° C. for 2 h. The lysate was centrifuged at 15000 revolutions per minute (RPM) at 4° C. for 15 minutes. The supernatant was collected and loaded onto Qiagen miniprep columns (QIAprep spin Mini prep kit, Cat. No. 27016). After centrifugation for 1 minute at 15000 RPM, the column was washed once with 750 µL wash buffer PE from QIAprep spin Mini prep kit. 80 μL of double distilled water was loaded to the columns to elute Hirt DNA.
Hirt DNA of each sample was loaded into 1.2% lx tris-acetate electrophoresis (TAE) agarose gel and separated at 90 voltages for 3 hours. The gel was then treated in 50 mM NaAc—HAc, pH4.2 for 30 min at room temperature (RT), and then denatured by soaking in denaturation buffer (0.5 M sodium hydroxide, 1.5 M sodium chloride) at RT for 30-45 min. The gel was then treated with neutralization buffer (1M tris[hydroxymethyl]aminomethane pH7.4 and 1.5M NaCl) at RT for 30 to 45 min.
The gel was transferred onto a pre-wet Nylon membrane (GE life science, Hybond N+) by capillary transfer method overnight, followed by UV crosslinking. The membrane was transferred into a hybridization tube, then rinsed with double distilled water at 60° C. for 5 mins. 10 mL of hybridization buffer (Lab kits, China) was added, the resulting sample was rotated in hybridization oven at 60° C. for 1 hour. Digoxigenin (DIG)-labelled HBV probe (SEQ ID NO: 1) was denatured at 95° C. for 10 minutes, and then 7 μL of denatured probe was added to the hybridization tube, which was rotated in hybridization oven at 60° C. overnight.
On the second day, the membrane was washed according to the procedure of DIG wash and block buffer set kit (Roche, Cat. 11 585 762 001), and then incubated with 50 mL antibody solution (Antibody anti-Digoxigenin-AP Fab fragment (Roche Cat. 11093274910) diluted in fresh 1× blocking buffer at 1:10,000) for 1 hour. The membrane was washed with 50 mL washing buffer (1× Maleic buffer with 0.3% Tween-20) for 15 minutes twice, and equilibrated with 20 mL detection buffer (0.1M tris[hydroxymethyl]aminomethane pH9.5, 0.1M sodium chloride) for 5 minutes. CDP-Star substrate (Roche, Cat. 12041677001) was added to the membrane for 5 minutes, and then the membrane was scanned by Bio-Rad Visualize Image System (Biorad, ChemiDoc-MP, Serial No. 731BR00916).

Row | Structure (SMILES) | cccDNA level in HepDES19 cells (Southern Blot)
1 | O=C(O)C1CCN(c2ccc3c(=O)c4cccc(Cl)c4oc3c2)C1 (centres unmarked) [Example 2, 1-(5-chloro-9-oxo-xanthen-3-yl)pyrrolidine-3-carboxylic acid] | dose-dependently reduced cccDNA level
2 | O=C(O)[C@@H]1CCN(c2ccc3c(=O)c4cccc(Cl)c4oc3c2)C1 [Example 3, (3R)-1-(5-chloro-9-oxo-xanthen-3-yl)pyrrolidine-3-carboxylic acid] | dose-dependently reduced cccDNA level
3 | O=C(O)[C@H]1CCN(c2ccc3c(=O)c4cccc(Cl)c4oc3c2)C1 [Example 4, (3S)-1-(5-chloro-9-oxo-xanthen-3-yl)pyrrolidine-3-carboxylic acid] | dose-dependently reduced cccDNA level
4 | O=C(O)C1CCN(c2ccc3c(=O)c4cccc(F)c4oc3c2)C1 (centres unmarked) [Example 5, 1-(5-fluoro-9-oxo-xanthen-3-yl)pyrrolidine-3-carboxylic acid] | dose-dependently reduced cccDNA level
5 | O=C(O)C1CCN(c2ccc3c(=O)c4c(Cl)ccc(Cl)c4oc3c2)C1 (centres unmarked) [Example 26, 1-(5,8-dichloro-9-oxo-xanthen-3-yl)pyrrolidine-3-carboxylic Acid] | dose-dependently reduced cccDNA level
